Laboratory results from patent publication US12516056B2, “Compounds for inhibition of janus kinase 1” (MANKIND PHARMA LTD., priority 2019, dated 2026).

Experiments:
Recombinant JAK1 = biological target: T1, Recombinant JAK1 (Homo sapiens, UniProt P23458); assay: JAK biochemical assay (LANCE Ultra TR-FRET), JAK1; details: recombinant JAK1, TR-FRET; read-out: Biochemical Assay (μM) JAK1
T1 construct: purchased Carna Biosciences
Outline: (§1)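 Kinase reactions ran in buffer of 50 mM HEPES pH 7.5 with 1 mM EGTA, 10 mM MgCl2, 2 mM DTT and 0.01% Tween-20, using recombinant enzyme. Phosphorylated ULight substrate was detected by TR-FRET, and compound effect expressed as % inhibition against vehicle.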

Recombinant JAK2 = biological target: T2, Recombinant JAK2 (Homo sapiens, UniProt O60674); assay: JAK biochemical assay (LANCE Ultra TR-FRET), JAK2; details: recombinant JAK2, TR-FRET; read-out: Biochemical Assay (μM) JAK2
T2 construct: purchased Carna Biosciences
Outline: as §1

Recombinant JAK3 = biological target: T3, Recombinant JAK3 (Homo sapiens, UniProt P52333); assay: JAK biochemical assay (LANCE Ultra TR-FRET), JAK3; details: recombinant JAK3, TR-FRET; read-out: Biochemical Assay (μM) JAK3
T3 construct: purchased Carna Biosciences
T3 sequence (P52333 1-1124): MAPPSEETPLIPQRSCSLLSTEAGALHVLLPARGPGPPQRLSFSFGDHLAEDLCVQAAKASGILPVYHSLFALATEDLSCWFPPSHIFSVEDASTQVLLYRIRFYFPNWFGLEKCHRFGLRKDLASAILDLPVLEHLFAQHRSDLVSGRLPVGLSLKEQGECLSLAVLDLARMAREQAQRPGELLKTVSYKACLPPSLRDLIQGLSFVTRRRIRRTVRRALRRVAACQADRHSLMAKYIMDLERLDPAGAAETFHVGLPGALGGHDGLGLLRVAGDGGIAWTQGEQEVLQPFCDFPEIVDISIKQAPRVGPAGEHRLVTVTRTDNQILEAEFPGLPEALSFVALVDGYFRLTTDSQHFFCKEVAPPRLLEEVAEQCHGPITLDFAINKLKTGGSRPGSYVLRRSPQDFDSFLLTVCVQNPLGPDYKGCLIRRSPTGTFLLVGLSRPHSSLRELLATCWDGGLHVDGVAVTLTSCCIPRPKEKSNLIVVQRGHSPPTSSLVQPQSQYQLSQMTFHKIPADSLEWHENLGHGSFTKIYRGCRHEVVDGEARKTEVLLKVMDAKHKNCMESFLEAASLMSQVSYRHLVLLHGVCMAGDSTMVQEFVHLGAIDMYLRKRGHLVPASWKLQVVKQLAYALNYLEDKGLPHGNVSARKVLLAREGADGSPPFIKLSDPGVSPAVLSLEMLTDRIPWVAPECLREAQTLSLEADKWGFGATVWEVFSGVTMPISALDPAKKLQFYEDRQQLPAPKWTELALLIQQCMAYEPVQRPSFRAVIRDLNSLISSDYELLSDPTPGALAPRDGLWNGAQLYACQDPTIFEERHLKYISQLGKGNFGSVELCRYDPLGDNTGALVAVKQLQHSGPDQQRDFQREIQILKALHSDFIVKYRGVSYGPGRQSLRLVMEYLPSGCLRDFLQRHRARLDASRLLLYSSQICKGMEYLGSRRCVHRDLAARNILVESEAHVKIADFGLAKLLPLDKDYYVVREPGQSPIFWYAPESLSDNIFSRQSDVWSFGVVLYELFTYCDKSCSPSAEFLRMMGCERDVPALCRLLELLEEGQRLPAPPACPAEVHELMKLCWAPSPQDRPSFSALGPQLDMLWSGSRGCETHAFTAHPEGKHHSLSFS
Outline: as §1

Recombinant TYK2 = biological target: T4, Recombinant TYK2 (Homo sapiens, UniProt P29597); assay: JAK biochemical assay (LANCE Ultra TR-FRET), TYK2; details: recombinant TYK2, TR-FRET; read-out: Biochemical Assay (μM) TYK2
T4 construct: purchased Carna Biosciences
Outline: as §1

[1] = test system: STAT3 phosphorylation by IL-6 in TF-1 cells; assay: JAK cellular assay: STAT3 phosphorylation by IL-6 in TF-1 cells (HTRF); assay type: cell-based; details: Homo sapiens, TF-1, TF-1 cells, IL-6 30 ng/ml, pSTAT3 HTRF; read-out: Cell Based Assay (μM) TF-1/IL-6/pSTAT3
Outline: (§2)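 TF-1 cells starved overnight in low-serum OptiMEM, then 120,000/well in RPMI, preincubated with compound 30 min at 37 °C (0.2% DMSO final). Stimulation 20 min with IL-6 30 ng/ml (pSTAT3) or GMCSF 5 ng/ml (pSTAT5); lysate phospho-STAT by HTRF, unstimulated background subtracted.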

[2] = test system: STAT5 phosphorylation by GMCSF in TF-1 cells; assay: JAK cellular assay: STAT5 phosphorylation by GMCSF in TF-1 cells (HTRF); assay type: cell-based; details: Homo sapiens; TF-1 cells, GMCSF 5 ng/ml, pSTAT5 HTRF; read-out: Cell Based Assay (μM) TF-1/GMCSF/pSTAT5
Outline: as §2

[3] = test system: STAT5 phosphorylation by IL-2 in HT-2 cells; assay: STAT5 phosphorylation by IL-2 in HT-2 cells (HTRF); assay type: cell-based; details: HT2, HT-2 cells, IL-2 50 U/ml, pSTAT5 HTRF; read-out: Cell Based Assay (μM) HT-2/IL-2/pSTAT5
Outline: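 Starved HT-2 cells (120,000/well) were preincubated 30 min at 37 °C with compound (0.2% DMSO), then stimulated 20 min with human IL-2 (50 U/ml). pSTAT5 in lysates measured by HTRF, with unstimulated-cell background subtracted.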

[4] = test system: IFN-γ production in NK 92 cells by IL-12; assay: IFN-γ production in NK 92 cells by IL-12 (ELISA); details: NK92, IFN-γ secretion, read-out: Cell Based Assay (μM) NK-92/IL-2/IFN-γ

T2 sequence (O60674 whole entry): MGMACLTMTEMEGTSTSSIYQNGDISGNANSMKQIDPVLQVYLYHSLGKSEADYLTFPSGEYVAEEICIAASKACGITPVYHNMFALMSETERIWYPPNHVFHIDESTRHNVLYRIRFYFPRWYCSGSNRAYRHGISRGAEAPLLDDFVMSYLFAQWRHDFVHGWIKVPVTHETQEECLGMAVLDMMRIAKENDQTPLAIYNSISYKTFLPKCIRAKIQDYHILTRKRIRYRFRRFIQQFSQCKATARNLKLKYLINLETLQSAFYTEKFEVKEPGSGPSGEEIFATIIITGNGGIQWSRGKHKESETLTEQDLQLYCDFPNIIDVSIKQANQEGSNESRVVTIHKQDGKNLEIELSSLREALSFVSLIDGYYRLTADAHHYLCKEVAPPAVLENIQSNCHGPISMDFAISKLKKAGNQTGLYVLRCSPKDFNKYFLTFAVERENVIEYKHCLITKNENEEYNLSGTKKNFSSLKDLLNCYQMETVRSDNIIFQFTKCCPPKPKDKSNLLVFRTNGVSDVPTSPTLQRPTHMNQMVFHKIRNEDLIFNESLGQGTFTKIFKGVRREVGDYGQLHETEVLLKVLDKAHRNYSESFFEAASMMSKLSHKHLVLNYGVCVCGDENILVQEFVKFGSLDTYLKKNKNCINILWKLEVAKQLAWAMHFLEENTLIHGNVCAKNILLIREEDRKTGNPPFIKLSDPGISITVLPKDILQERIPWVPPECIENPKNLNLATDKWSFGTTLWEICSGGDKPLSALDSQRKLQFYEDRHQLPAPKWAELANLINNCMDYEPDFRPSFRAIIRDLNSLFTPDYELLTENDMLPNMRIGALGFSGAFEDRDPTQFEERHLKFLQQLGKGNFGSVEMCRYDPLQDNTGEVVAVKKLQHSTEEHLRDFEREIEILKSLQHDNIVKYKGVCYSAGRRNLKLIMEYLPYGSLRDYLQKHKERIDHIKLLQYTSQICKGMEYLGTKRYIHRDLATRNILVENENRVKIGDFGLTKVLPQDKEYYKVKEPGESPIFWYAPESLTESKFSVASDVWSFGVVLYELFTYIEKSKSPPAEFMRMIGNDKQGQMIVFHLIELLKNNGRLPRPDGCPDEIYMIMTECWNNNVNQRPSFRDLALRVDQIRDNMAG
T4 sequence (P29597 whole entry): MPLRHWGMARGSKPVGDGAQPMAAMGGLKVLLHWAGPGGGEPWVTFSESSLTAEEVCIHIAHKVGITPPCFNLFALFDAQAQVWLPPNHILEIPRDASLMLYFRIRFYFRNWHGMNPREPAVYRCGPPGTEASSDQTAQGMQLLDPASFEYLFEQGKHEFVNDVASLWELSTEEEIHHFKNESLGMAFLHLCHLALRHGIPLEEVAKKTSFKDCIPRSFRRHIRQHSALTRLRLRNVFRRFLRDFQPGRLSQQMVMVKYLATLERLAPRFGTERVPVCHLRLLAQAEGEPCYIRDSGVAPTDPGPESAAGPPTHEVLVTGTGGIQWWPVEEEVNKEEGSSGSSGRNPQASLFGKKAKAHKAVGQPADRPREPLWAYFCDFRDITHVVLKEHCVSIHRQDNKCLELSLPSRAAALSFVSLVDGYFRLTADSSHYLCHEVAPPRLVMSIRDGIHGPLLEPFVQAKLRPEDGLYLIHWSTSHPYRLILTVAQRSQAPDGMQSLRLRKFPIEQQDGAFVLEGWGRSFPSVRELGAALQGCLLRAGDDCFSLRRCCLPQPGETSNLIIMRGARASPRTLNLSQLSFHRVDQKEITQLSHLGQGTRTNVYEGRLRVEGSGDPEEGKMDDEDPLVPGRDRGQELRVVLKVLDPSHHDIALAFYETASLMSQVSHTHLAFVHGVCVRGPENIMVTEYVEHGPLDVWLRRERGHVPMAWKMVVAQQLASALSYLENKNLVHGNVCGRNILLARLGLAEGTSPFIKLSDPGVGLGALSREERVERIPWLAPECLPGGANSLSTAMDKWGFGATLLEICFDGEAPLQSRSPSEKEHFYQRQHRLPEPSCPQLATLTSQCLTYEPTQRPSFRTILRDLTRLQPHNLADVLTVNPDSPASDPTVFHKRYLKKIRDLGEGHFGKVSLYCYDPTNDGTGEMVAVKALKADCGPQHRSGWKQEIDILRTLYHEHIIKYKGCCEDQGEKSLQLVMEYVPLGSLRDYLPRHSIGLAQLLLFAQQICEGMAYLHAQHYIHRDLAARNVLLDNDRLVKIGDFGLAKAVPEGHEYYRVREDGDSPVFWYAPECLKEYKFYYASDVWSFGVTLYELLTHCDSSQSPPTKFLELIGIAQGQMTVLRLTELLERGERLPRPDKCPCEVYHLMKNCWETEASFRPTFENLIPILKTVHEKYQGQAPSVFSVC
T1 sequence (P23458 whole entry): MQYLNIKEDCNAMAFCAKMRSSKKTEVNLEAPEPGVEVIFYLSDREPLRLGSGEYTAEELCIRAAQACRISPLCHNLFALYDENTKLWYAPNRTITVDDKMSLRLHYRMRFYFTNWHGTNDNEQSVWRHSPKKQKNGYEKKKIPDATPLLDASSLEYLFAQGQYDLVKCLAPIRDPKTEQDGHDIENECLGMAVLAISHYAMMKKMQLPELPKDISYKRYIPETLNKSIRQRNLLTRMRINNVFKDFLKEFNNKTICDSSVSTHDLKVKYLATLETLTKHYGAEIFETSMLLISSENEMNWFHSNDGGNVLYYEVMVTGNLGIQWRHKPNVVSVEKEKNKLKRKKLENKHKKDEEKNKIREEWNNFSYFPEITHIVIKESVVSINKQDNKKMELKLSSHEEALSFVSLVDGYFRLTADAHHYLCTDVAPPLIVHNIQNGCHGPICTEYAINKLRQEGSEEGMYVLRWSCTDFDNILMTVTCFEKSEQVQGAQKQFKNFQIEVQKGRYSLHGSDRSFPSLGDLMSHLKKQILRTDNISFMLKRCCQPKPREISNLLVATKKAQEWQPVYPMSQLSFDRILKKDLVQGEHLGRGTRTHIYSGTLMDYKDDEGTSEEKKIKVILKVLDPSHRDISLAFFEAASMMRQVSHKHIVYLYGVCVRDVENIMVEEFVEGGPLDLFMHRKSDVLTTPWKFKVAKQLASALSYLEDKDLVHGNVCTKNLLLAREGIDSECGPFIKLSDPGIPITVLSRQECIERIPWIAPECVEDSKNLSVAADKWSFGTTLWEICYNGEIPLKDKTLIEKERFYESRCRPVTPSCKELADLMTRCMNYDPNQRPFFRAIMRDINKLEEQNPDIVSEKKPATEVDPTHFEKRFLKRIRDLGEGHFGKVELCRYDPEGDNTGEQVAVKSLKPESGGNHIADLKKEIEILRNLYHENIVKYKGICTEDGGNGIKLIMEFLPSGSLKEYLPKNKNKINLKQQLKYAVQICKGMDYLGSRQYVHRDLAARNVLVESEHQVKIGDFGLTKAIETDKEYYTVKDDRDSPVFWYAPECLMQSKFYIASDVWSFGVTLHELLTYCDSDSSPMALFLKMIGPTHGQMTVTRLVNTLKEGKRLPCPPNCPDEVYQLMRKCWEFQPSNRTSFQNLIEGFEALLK

IC50 (Recombinant JAK1) | IC50 (Recombinant JAK2) | IC50 (Recombinant JAK3) | IC50 (Recombinant TYK2) | IC50 [1] | IC50 [2] | IC50 [3] | IC50 [4] | Compound
0.025 µM | 0.108 µM | 0.07 µM | > 1 µM | 1.05 µM | > 10 µM | > 1 µM | > 10 µM | N#CCc1ccc(-n2cc(-c3ccnc4[nH]cnc34)cn2)nc1 [Example 1078, 2-(6-(4-(3H-imidazo[4,5-b]pyridin-7-yl)-1H-pyrazol-1-yl)pyridin-3-yl)acetonitrile]
0.03 µM | 0.2 µM | 0.07 µM | > 1 µM | 1.3 µM | > 10 µM | > 1 µM | 10 µM | COC(c1ccc(-n2cc(-c3ccnc4[nH]cnc34)cn2)nc1)C(F)(F)F (centres unmarked) [Example 1119, 7-(1-(5-(2,2,2-trifluoro-1-methoxyethyl)pyridin-2-yl)-1H-pyrazol-4-yl)-3H-imidazo[4,5-b]pyridine]
0.004 µM | 0.023 µM | 0.009 µM | 0.15 µM | 0.27 µM | > 10 µM | 0.26 µM | > 10 µM | CC(O)(c1ccc(-n2cc(-c3ccnc4[nH]cnc34)cn2)nc1)C(F)(F)F (centres unmarked) [Example 1125, 2-(6-(4-(3H-imidazo[4,5-b]pyridin-7-yl)-1H-pyrazol-1-yl)pyridin-3-yl)-1,1,1-trifluoropropan-2-ol]
0.013 µM | 0.073 µM | 0.014 µM | > 1 µM | 0.45 µM | > 10 µM | < 1 µM | > 10 µM | OC(c1ccc(-n2cc(-c3ccnc4[nH]cnc34)cn2)nc1)C(F)(F)F (centres unmarked) [Example 1169, 1-(6-(4-(3H-imidazo[4,5-b]pyridin-7-yl)-1H-pyrazol-1-yl)pyridin-3-yl)-2,2,2-trifluoroethanol]
0.0025 µM | 0.064 µM | 0.018 µM | > 1 µM | 0.16 µM | > 1 µM | 0.47 µM | > 3 µM | CC(C)N1CCC([C@@](O)(c2ccc(-n3cc(-c4ccnc5[nH]cnc45)cn3)nc2)C(F)(F)F)C1 (stereo partly drawn) [Example 1225, (R)-1-(6-(4-(3H-imidazo[4,5-b]pyridin-7-yl)-1H-pyrazol-1-yl)pyridin-3-yl)-2,2,2-trifluoro-1-(1-isopropylpyrrolidin-3-yl)ethanol]
0.0003 µM | 0.005 µM | – | – | 0.05 µM | 1.5 µM | 0.15 µM | > 3 µM | CN1CC(C(O)(c2ccc(-n3cc(-c4ccnc5[nH]cnc45)cn3)nc2)C(F)(F)F)C1 (centres unmarked) [Example 1231, 1-(6-(4-(3H-imidazo[4,5-b]pyridin-7-yl)-1H-pyrazol-1-yl)pyridin-3-yl)-2,2,2-trifluoro-1-(1-methylazetidin-3-yl)ethanol]
0.003 µM | 0.023 µM | 0.015 µM | 0.2 µM | 0.09 µM | > 1 µM | 0.34 µM | > 3 µM | CCN1CCC([C@@](O)(c2ccc(-n3cc(-c4ccnc5[nH]cnc45)cn3)nc2)C(F)(F)F)C1 (stereo partly drawn) [Example 1232, (R)-1-(6-(4-(3H-imidazo[4,5-b]pyridin-7-yl)-1H-pyrazol-1-yl)pyridin-3-yl)-1-(1-ethylpyrrolidin-3-yl)-2,2,2-trifluoroethanol]
< 0.1 µM | < 0.1 µM | < 0.1 µM | < 0.5 µM | 0.21 µM | > 1 µM | > 0.5 µM | > 3 µM | CCN1CCC([C@](O)(c2ccc(-n3cc(-c4ccnc5[nH]cnc45)cn3)nc2)C(F)(F)F)C1 (stereo partly drawn) [Example 1233, (S)-1-(6-(4-(3H-imidazo[4,5-b]pyridin-7-yl)-1H-pyrazol-1-yl)pyridin-3-yl)-1-(1-ethylpyrrolidin-3-yl)-2,2,2-trifluoroethanol]
